Laboratory results: ChEMBL document CHEMBL5724914, “Linking interpersonal differences in gut microbiota composition and drug biotransformation activity” (2024)

How the values were obtained:
[1] = The drug is tested on Z-019 corresponding to rat gut metagenome with ENA study accession number: PRJEB37062 and ENA sample accession number: ERS12561818 for biotransformation under anaerobic condition. The drug concentrations were measured over 9 timepoints collected between 0 and 24 hours of incubation by liquid-chromatography-coupled mass spectrometry (LC–MS); conditions: 2 µM
[2] = The drug is tested on Z-017 corresponding to mouse gut metagenome with ENA study accession number: PRJEB37062 and ENA sample accession number: ERS12561816 for biotransformation under anaerobic condition. The drug concentrations were measured over 9 timepoints collected between 0 and 24 hours of incubation by liquid-chromatography-coupled mass spectrometry (LC–MS); conditions: 2 µM
[3] = The drug is tested on Z-007 corresponding to rat gut metagenome with ENA study accession number: PRJEB37062 and ENA sample accession number: ERS12561807 for biotransformation under anaerobic condition. The drug concentrations were measured over 9 timepoints collected between 0 and 24 hours of incubation by liquid-chromatography-coupled mass spectrometry (LC–MS); conditions: 2 µM
[4] = The drug is tested on WLS-240 corresponding to human gut metagenome with ENA study accession number: PRJEB37062 and ENA sample accession number: ERS12561773 for biotransformation under anaerobic condition. The drug concentrations were measured over 9 timepoints collected between 0 and 24 hours of incubation by liquid-chromatography-coupled mass spectrometry (LC–MS); conditions: 2 µM
[5] = The drug is tested on WLS-098 corresponding to human gut metagenome with ENA study accession number: PRJEB37062 and ENA sample accession number: ERS12561754 for biotransformation under anaerobic condition. The drug concentrations were measured over 9 timepoints collected between 0 and 24 hours of incubation by liquid-chromatography-coupled mass spectrometry (LC–MS); conditions: 2 µM
[6] = The drug is tested on WLS-073 corresponding to human gut metagenome with ENA study accession number: PRJEB37062 and ENA sample accession number: ERS12561749 for biotransformation under anaerobic condition. The drug concentrations were measured over 9 timepoints collected between 0 and 24 hours of incubation by liquid-chromatography-coupled mass spectrometry (LC–MS); conditions: 2 µM
[7] = human gut metagenome, 24 h, 2 µM
[8] = human gut metagenome, 24 h, 2 µM; remark: listed apart in the source
[9] = human gut metagenome, 24 h, 2 µM; remark: listed apart in the source
[10] = human gut metagenome, 24 h, 2 µM; remark: listed apart in the source
[11] = human gut metagenome, 24 h, 2 µM; remark: listed apart in the source
[12] = human gut metagenome, 24 h, 2 µM; remark: listed apart in the source
[13] = The drug is tested on Z-003 corresponding to pig gut metagenome with ENA study accession number: PRJEB37062 and ENA sample accession number: ERS12561803 for biotransformation under anaerobic condition. The drug concentrations were measured over 9 timepoints collected between 0 and 24 hours of incubation by liquid-chromatography-coupled mass spectrometry (LC–MS); conditions: 2 µM
[14] = The drug is tested on Z-002 corresponding to rabbit gut metagenome with ENA study accession number: PRJEB37062 and ENA sample accession number: ERS12561802 for biotransformation under anaerobic condition. The drug concentrations were measured over 9 timepoints collected between 0 and 24 hours of incubation by liquid-chromatography-coupled mass spectrometry (LC–MS); conditions: 2 µM
[15] = The drug is tested on WLS-069 corresponding to human gut metagenome with ENA study accession number: PRJEB37062 and ENA sample accession number: ERS12561748 for biotransformation under anaerobic condition. The drug concentrations were measured over 9 timepoints collected between 0 and 24 hours of incubation by liquid-chromatography-coupled mass spectrometry (LC–MS); conditions: 2 µM
[16] = human gut metagenome, 24 h, 2 µM; remark: listed apart in the source
[17] = human gut metagenome, 24 h, 2 µM; remark: listed apart in the source
[18] = human gut metagenome, 24 h, 2 µM; remark: listed apart in the source
[19] = human gut metagenome, 24 h, 2 µM; remark: listed apart in the source
[20] = human gut metagenome, 24 h, 2 µM; remark: listed apart in the source

Measured: Bacterial Biotransformation
Further: call rule not given here.

CN1[C@@H]2CC[C@H]1C[C@@H](OC(=O)[C@H](CO)c1ccccc1)C2 [HYOSCYAMINE]
Compound NOT metabolized: [1] | [2] | [3] | [6] | [9]
Compound metabolized: [4] | [5] | [7] | [8] | [10] | [11] | [12]

CN[C@H]1CC[C@@H](c2ccc(Cl)c(Cl)c2)c2ccccc21 [SERTRALINE]
Compound metabolized: [2] | [13] | [5] | [15] | [17] | [10] | [11] | [20] | [12]
Compound NOT metabolized: [1] | [3] | [14] | [4] | [7] | [16] | [18] | [8] | [9] | [19]

CCc1oc2ccccc2c1C(=O)c1cc(Br)c(O)c(Br)c1 [BENZBROMARONE]
Compound NOT metabolized: [1] | [2] | [3] | [16] | [9]
Compound metabolized: [13] | [14] | [4] | [5] | [15] | [7] | [17] | [18] | [8] | [10] | [19] | [11] | [20] | [12]

Cc1cc2c(s1)Nc1ccccc1N=C2N1CCN(C)CC1 [OLANZAPINE]
Compound NOT metabolized: [1] | [2] | [3] | [4] | [15] | [16] | [17] | [8] | [9] | [10] | [19] | [12]
Compound metabolized: [13] | [14] | [7] | [18] | [11] | [20]

CC(=O)OCC(=O)NCCCOc1cccc(CN2CCCCC2)c1 [ROXATIDINE ACETATE]
Compound metabolized: [2] | [3] | [13] | [4] | [5] | [6] | [7] | [16] | [17] | [18] | [8] | [10] | [19] | [11] | [20] | [12]
Compound NOT metabolized: [1]

COc1ccc(Cc2nccc3cc(OC)c(OC)cc23)cc1OC [PAPAVERINE]
Compound metabolized: [13] | [14] | [15] | [7] | [16] | [17] | [18] | [8] | [10] | [11] | [20] | [12]
Compound NOT metabolized: [1] | [2] | [3] | [9]

COc1cc2nc(N3CCN(C(=O)C4CCCO4)CC3)nc(N)c2cc1OC (stereo not given) [TERAZOSIN]
Compound metabolized: [4] | [5] | [6] | [7] | [17] | [18] | [8] | [10] | [12]
Compound NOT metabolized: [1] | [2] | [3] | [13] | [14] | [16] | [9] | [19] | [11] | [20]
